Here are results for six compounds from US5191072A, “Lipid A monosaccharide analogues” (priority 1989, dated 1993).

Data set [1] relates to TNF. Briefly: TNF-producing activity (TNF titer in serum of mice, cytotoxicity assay using L929 cells). Format: in vivo. Particulars: 10 μg/mouse intravenously, Corynebacterium parvum-primed ICR mouse, serum at 90 minutes; titer = reciprocal of dilution showing 50% cytotoxicity. On the procedure:
TNF-producing activity was evaluated utilizing the following experiment system.
The first stimulating agent, 5% Corynebacterium parvum suspension (0.2 ml physiological saline solution) was intravenously administered to ICR mouse (female, 6-7 week-aged). Nine days later, the second stimulating agent, the compound of this invention was intravenously administered to the same mouse at 10 μg/mouse. In 90 minutes, 0.5-1 ml of blood was taken from the retro orbital plexus. The obtained blood was allowed to clot at room temperature for five to six hours, and centrifuged at 7200×g for five minutes to separate serum. The obtained serum was incubated at 56° C. for 30 minutes for inactivation before use in the following experiment.
TNF activity in the serum was measured with cytotoxicity assay using L929 cells. L929 cells were prepared in concentration of 6×10^4 cells/well (0.1 ml) RPMI 1640 medium containing 10% FBS and 2 μg/ml actinomycin D in 96-well plates. Serial dilution of obtained serum in RPMI 1640 medium containing 10% FBS was added to each well in the plate (0.1 ml/well). After a 48 hr incubation at 37° C., the viable cells were fixed with methanol. […] Next, absorbance at 550 nm was measured. Finally, cytotoxicity ratio (%) was calculated according to the following formula, and the reciprocal of dilution of the serum showing 50% cytotoxicity was determined for TNF titer in serum (U/ml). […]

The subject of data set [2] is neutrophils. Briefly: O2^- production stimulating activity in neutrophils. Format: cell-based, C3 H/HeN mouse. Particulars: Neutrophil, 1 h, read-out: Stimulation %. As for the experimental part: O2^- Production Stimulating Activity in Neutrophils
O2^- production stimulating activity in neutrophils was evaluated utilizing the following experimental system [see J. Exp. Med., 160, 1656-1671, 1984]. To the peritoneal cavity of C3 H/HeN mouse (male, 8-9 week-aged), physiological saline containing 0.2% (w/v) casein was administered. Three hours later, peritoneal exudate cells (90% or more of which are neutrophils) were collected. These cells (1.7×10^6 cells/ml/tube) were incubated in the presence of the compound according to this invention (1 μg/ml) at 37° C. for 60 minutes. After addition of 80 μM of cytochrome C and 0.1 μM of formyl-methionyl-leucyl-phenylalanine (FMLP), the mixture was incubated in the presence of or in the absence of Superoxide dismutase (SOD) at 37° C. for 10 minutes. Then, SOD-inhibitable cytochrome C reduction was estimated from the difference between absorbances at 550 nm and 541.7 nm, and from molar absorption coefficient (16.5×10^3). O2^- production-stimulating activity was shown in Stimulation % in the following formula.
Stimulation %=(the amount of O2^- produced in the presence of compounds of the invention)/(the amount of O2^- produced in the absence of compounds of the invention)×100-100

Data set [3] in a line: Lethal toxicity in galactosamine-sensitized mice. The format is in vivo. Particulars: galactosamine-sensitized mice; intravenous, C57BL mouse, D-galactosamine/HCl 10 mg/mouse i.p.; observed to seventh day; read-out: LD50 (galactosamine load). On the procedure: (§1) Lethal Toxicity in Galactosamine-Sensitized Mice
(§2) Lethal toxicity in galactosamin-sensitized mice was evaluated by utilizing the following experiment system [see J.Biochem., 98, 395-406 pp., 1985].
(§3) To C57BL mouse (male, 7-week aged), 10 mg/mouse of D-galactosamine/HCl was intraperitoneally administered. Immediately after that, the compound of this invention was intravenously administered. After these administrations, general conditions of the mouse were observed every one hour for seven hours, and every day from the following day to the seventh day.

The test system of data set [4] is E.coli. 589 strain. Briefly: Nonspecific protective activity against bacterial infection in immunosuppressed mouse. The format is in vivo. Particulars: ICR mice, cyclophosphamide 200 mg/kg, E.coli 1.0×10^7 CFU/mouse i.p. On the procedure:
Nonspecific Protective Activity Against Bacterial Infection in Immunosuppressed Mouse
Protective effect against bacterial infection in immunosuppressed mouse was evaluated by utilizing the following experiment system.
To a group of ten ICR mice (male, 5-week aged), cyclophosphamide (200 mg/kg) was intraperitoneally administered. Three days later, the compound of this invention was also intraperitoneally administered. Twenty four hours later, E.coli. 589 strain, was intraperitoneally inoculated at 1.0×10^7 CFU/mouse. The protective activities against infection was evaluated from survival rate (%) of mice after six days of bacterial infection.

The subject of data set [5] is galactosamine-sensitized mice. Briefly: Lethal toxicity in galactosamine-sensitized mice. Format: in vivo. The note with it: intravenous, C57BL mouse, D-galactosamine/HCl 10 mg/mouse i.p.; observed to seventh day; 10080 min. On the procedure: as §1, §2, §3
[6] abbreviates: compound 1 μg/ml, 37° C., 60 minutes, 0.1 μM FMLP, mouse peritoneal exudate cells.

Like-named read-outs stand apart in the source and are kept apart here.

As a reminder, the LD50 is the dose expected to kill half of the subjects tested.

`CCCCCCCCCCCCC(CCCCCCCCCCC)CC(=O)O[C@H]1[C@H](OP(=O)(O)O)[C@@H](CO)OC(O)[C@@H]1NC(=O)C[C@H](O)CCCCCCCCCCC` (mixture of isomers) [Compound 46, 2-deoxy-2-[(3R)-3-hydroxytetradecanamido]-4-O-phosphono-3-O-[(3RS)-3-undecylpentadecanoyl]-D-glucopyranose]: in data set [1], the “the amount of the TNF in serum” value worked out at 292354 U/ml.

In the case of `CCCCCCCCCCCCCCC(CCCCCCCCCCC)CC(=O)O[C@H]1[C@H](OP(=O)(O)O)[C@@H](CO)OC(O)[C@@H]1NC(=O)C[C@H](O)CCCCCCCCCCC` (mixture of isomers) [Compound 47, 2-deoxy-2-[(3R)-3-hydroxytetradecanamido]-4-O-phosphono-3-O-[(3RS)-3-undecylheptadecanoyl]-D-glucopyranose], the activation at 1 µg/mL in data set [2] (setting [6]) was found to be 73%.

With `CCCCCCCCCCCCCCCCC(CCCCCCCCCCC)CC(=O)O[C@H]1[C@H](OP(=O)(O)O)[C@@H](CO)OC(O)[C@@H]1NC(=O)C[C@H](O)CCCCCCCCCCC` (mixture of isomers) [Compound 48, 2-deoxy-2-[(3R)-3-hydroxytetradecanamido]-4-O-phosphono-3-O-[(3RS)-3-undecylnonadecanoyl]-D-glucopyranose], the activation at 1 µg/mL in data set [2] (setting [6]) is 69%.

Regarding `CCCCCCCCCCCCCCC(CCCCCCCCCCC)CC(=O)O[C@H]1[C@H](OP(=O)(O)O)[C@@H](CO)OC[C@@H]1NC(=O)C[C@H](O)CCCCCCCCCCC` (stereo partly shown) [Compound 47*], the LD50 at 168 h in data set [3] was determined as 11.8 µg/kg. Besides, the activation at 1 µg/mL in data set [2] (Mus musculus) was determined as 111%.

For the compound `CCCCCCCCCCCCCC(=O)OC(CCCCCCCCCCC)CC(=O)O[C@H]1[C@H](OP(=O)(O)O)[C@@H](CO)OC(O)[C@@H]1NC(=O)CC(O)CCCCCCCCCCC` (stereo partly drawn) [GLA60, 2-deoxy-2-(3-hydroxytetradecanaymidno)-4-0-phosphorno-3-0-[(3-O-tetradecanoyl)-tetradecanoyl]-D-glucopyranose], the “survival rate of mice after six days of infection” value in data set [4] (0.005 mg/kg i.p.) is given as 33%; in data set [4] (0.05 mg/kg i.p.) it was 43%; in data set [4] (0.5 mg/kg i.p.), 70%. The LD50 at 168 h in data set [3] stood at 3 µg/kg. The activation at 1 µg/mL in data set [2] (Mus musculus) is 71%. Also, the “the amount of the TNF in serum” value in data set [1] is recorded as 216809 U/ml.

In the case of `CCCCCCCCCCCCCC(=O)OC(CCCCCCCCCCC)CC(=O)NC1C(OCC2OC(OP(=O)(O)O)C(NC(=O)CC(O)CCCCCCCCCCC)C(OC(=O)CC(O)CCCCCCCCCCC)C2O)OC(CO)C(OP(=O)(O)O)C1OC(=O)CC(CCCCCCCCCCC)OC(=O)CCCCCCCCCCCCC` (stereo not shown) [Lipid A], the “survival rate of mice after six days of infection” value in data set [4] (0.05 mg/kg i.p.) is given as 75%. Moreover, the “LD50 (galactosamine load)” value in data set [5] amounted to 0.3 µg/kg.
